From patent US20240100031A1, “PHARMACEUTICAL COMPOSITION FOR PREVENTING OR TREATING VIRAL […] PIPERLONGUMINE-BASED COMPOUND AS ACTIVE INGREDIENT” (priority 2020, published 2024)
pIC50: −log10 of the molar value.

Test system: novel coronavirus (SARS-CoV-2)
Test: microbe, parasite or virus in culture
Assay type: cell-based
Settings: for pIC50: Severe acute respiratory syndrome coronavirus 2, Vero, 24 h, read-out: Infection inhibitory concentration IC50

SMILES	pIC50	inhibition of viral infection compared with positive controls (in words)
CCN(CC)CCCC(C)Nc1ccnc2cc(Cl)ccc12 (centres unmarked) [Chloroquine, reference compound]	5.39	
COC(=O)c1cc(/C=C/C(=O)N2CCC=CC2=O)ccc1OC [Compound 1, (E)-methyl-2-methoxy-5-(3-oxo-3-(2-oxo-5,6-dihydropyridin-1(2H)-yl)prop-1-en-1-yl)benzoate]	5.35	
COC(=O)c1cc(/C=C/C(=O)N2CCC=C(Cl)C2=O)ccc1OC [Compound 3, (E)-methyl-5-(3-(3-chloro-2-oxo-5,6-dihydropyridin-1(2H)-yl)-3-oxoprop-1-en-1-yl)-2-methoxybenzoate]	5.70	more remarkable effects than remdesivir
COC(=O)c1cc(/C=C/C(=O)N2CC=CC2=O)ccc1OC(C)=O [Compound 4, (E)-methyl-2-acetoxy-5-(3-oxo-3-(2-oxo-2,5-dihydro-1H-pyrrol-1-yl)prop-1-en-1-yl)benzoate]	5.11	
COC(=O)c1cc(/C=C/C(=O)N2CCC=C(Br)C2=O)ccc1OC [Compound 9, (E)-methyl-5-(3-(3-bromo-2-oxo-5,6-dihydropyridin-1(2H)-yl)-3-oxoprop-1-en-1-yl)-2-methoxybenzoate]	5.80	more remarkable effects than remdesivir
COC(=O)c1cc(/C=C/C(=O)N2CCC=C(Br)C2=O)ccc1O [Compound 10, (E)-methyl-5-(3-(3-bromo-2-oxo-5,6-dihydropyridin-1(2H)-yl)-3-oxoprop-1-en-1-yl)-2-hydroxybenzoate]	5.64	more remarkable effects than remdesivir
COC(=O)c1cc(/C=C/C(=O)N2CCC=C(Br)C2=O)ccc1OC(C)=O [Compound 11, (E)-methyl-2-acetoxy-5-(3-(3-bromo-2-oxo-5,6-dihydropyridin-1(2H)-yl)-3-oxoprop-1-en-1-yl)benzoate]	5.71	more remarkable effects than remdesivir
COC(=O)c1cc(/C=C/C(=O)N2CCC=C(Cl)C2=O)ccc1O [Compound 12, (E)-methyl-5-(3-(3-chloro-2-oxo-5,6-dihydropyridin-1(2H)-yl)-3-oxoprop-1-en-1-yl)-2-hydroxybenzoate]	5.58	more remarkable effects than remdesivir
COC(=O)c1cc(/C=C/C(=O)N2CCC=C(Cl)C2=O)ccc1OC(C)=O [Compound 13, (E)-methyl-2-acetoxy-5-(3-(3-chloro-2-oxo-5,6-dihydropyridin-1(2H)-yl)-3-oxoprop-1-en-1-yl)benzoate]	5.73	more remarkable effects than remdesivir
O=C(/C=C/c1cccc([N+](=O)[O-])c1)N1CCC=C(Cl)C1=O [Compound 16, (E)-3-chloro-1-(3-(3-nitrophenyl)acryloyl)-5,6-dihydropyridin-2(1H)-one]	5.38	
O=C(/C=C/c1cccc([N+](=O)[O-])c1)N1CCC=C(Br)C1=O [Compound 17, (E)-3-bromo-1-(3-(3-nitrophenyl)acryloyl)-5,6-dihydropyridin-2(1H)-one]	5.27	
COc1cc(/C=C/C(=O)N2CCC=C(Cl)C2=O)cc(OC)c1OCc1nnc(-c2cc(Cl)cc(Cl)c2)o1 [Compound 19, (E)-3-chloro-1-(3-(4-((5-(3,5-dichlorophenyl)-1,3,4-oxadiazol-2-yl)methoxy)-3,5-dimethoxyphenyl)acryloyl)-5,6-dihydropyridin-2(1H)-one]	5.39	
Cc1cccc(C)c1OCC(=O)N[C@@H](Cc1ccccc1)[C@@H](O)C[C@H](Cc1ccccc1)NC(=O)[C@H](C(C)C)N1CCCNC1=O [Lopinavir, lopinavir, reference compound]	4.90	
CCC(CC)COC(=O)[C@H](C)N[P@](=O)(OC[C@H]1O[C@@](C#N)(c2ccc3c(N)ncnn23)[C@H](O)[C@@H]1O)Oc1ccccc1 [Remdesivir, remdesivir, reference compound]	5.58	
